Values joined by “and” are separate entries in the source; they are usually repeats but may differ in a detail not shown here. Equal entries are not always repeated. “Also recorded” adds a separate entry of the source.
Key:
TMEM16A (ANO1) [1] = target: T1, TMEM16A (ANO1) (Mus musculus, UniProt Q8BHY3); test: Anion permeability of the ANO1 pore, Erev under bi-ionic conditions; assay type: cell-based; settings: for permeability ratio PX/PCl: Ca^2+-activated current, calculated from Erev after junction potential correction; for zero current potential of I–V curve: example ramp −80 to +80 mV, [Ca^2+] = 20 µM, intracellular salt 140 mM (NaHCO3 130 mM + 10 mM NaCl)
T1 construct: We subcloned the coding region of the cDNA into pEGFP-N3 vector; expressed in transfected cells; host or cells: HEK293 cells
T1 sequence (Q8BHY3 1-956 isoform Q8BHY3-2): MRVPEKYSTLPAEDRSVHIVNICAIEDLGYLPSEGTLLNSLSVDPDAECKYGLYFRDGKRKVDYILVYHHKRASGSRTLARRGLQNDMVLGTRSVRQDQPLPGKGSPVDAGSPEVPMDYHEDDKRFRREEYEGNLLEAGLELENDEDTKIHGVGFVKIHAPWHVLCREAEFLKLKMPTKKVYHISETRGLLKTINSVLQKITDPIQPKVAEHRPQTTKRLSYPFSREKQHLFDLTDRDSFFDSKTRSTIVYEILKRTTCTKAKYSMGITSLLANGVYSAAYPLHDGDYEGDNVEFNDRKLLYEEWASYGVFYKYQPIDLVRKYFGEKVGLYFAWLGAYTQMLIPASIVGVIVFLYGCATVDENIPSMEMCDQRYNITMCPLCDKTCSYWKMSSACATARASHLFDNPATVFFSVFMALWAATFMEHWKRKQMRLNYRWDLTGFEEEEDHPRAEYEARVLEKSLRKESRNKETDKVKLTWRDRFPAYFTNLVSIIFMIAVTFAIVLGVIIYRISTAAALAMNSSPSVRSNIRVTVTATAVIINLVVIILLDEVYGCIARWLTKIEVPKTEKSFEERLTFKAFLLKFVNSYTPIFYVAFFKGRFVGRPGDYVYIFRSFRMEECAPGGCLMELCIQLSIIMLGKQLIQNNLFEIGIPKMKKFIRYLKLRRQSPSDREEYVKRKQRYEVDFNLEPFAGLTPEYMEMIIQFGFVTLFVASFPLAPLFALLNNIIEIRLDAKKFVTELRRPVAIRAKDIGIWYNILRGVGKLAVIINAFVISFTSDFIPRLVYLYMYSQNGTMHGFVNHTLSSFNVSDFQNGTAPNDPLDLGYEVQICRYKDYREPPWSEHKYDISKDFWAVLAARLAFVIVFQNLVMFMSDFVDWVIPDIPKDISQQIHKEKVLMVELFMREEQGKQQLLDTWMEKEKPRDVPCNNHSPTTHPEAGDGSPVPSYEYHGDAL
Source text: (§1) The mouse TMEM16A cDNA (NCBI reference sequence: NM_001242349.1) encoding ANO1 CaCC was a generous gift from Dr. Lily Jan. We subcloned the coding region of the cDNA into pEGFP-N3 vector (Clontech Laboratories, Inc.), resulting in a construct in which an enhanced green fluorescent protein (eGFP) was attached to the C-terminus of the ANO1 protein. The sequence was confirmed by commercially-available DNA sequencing service. This eGFP-attached ANO1 cDNA construct was used for channel expression throughout the study. The cDNA was transfected into human embryonic kidney (HEK) 293 cells using lipofectamine transfection methods, [42], [43]. A fluorescent light source and a GFP filter set (Chroma Technology Co.) in the DM IRB inverted microscope (Leica Microsystems) were used to identify transfected cells expressing channel proteins. Electrophysiological experiments were performed ∼24 to 72 hours after transfection.
The anion permeability of the ANO1 pore was examined under bi-ionic conditions in which the extracellular solution contained 140 mM NaCl (the zero-Ca^2+ solution). The intracellular solution contained 140 mM sodium salts of various anions with the exception of the HCO3 ^− experiment in which the solution contained 130 mM NaHCO3 and 10 mM NaCl. In all intracellular solutions for the bi-ionic experiments, 0.1 mM EGTA and 0.12 mM total Ca^2+ or Sr^2+ were added to the solution to activate the ANO1 channel (Free [Ca^2+] or [Sr^2+] were saturating concentrations). Erev of the open channel was measured in two ways. First, under voltage-clamp configuration, a 3-sec voltage ramp from −80 mV to +80 mV was applied and the Erev of the leak-subtracted I-V curve was then determined (see Fig. 5 A & B). The second method employed the current-clamp (I = 0) mode in which the patch was exposed to divalent cations throughout the recording (Fig. 5 C and Fig. 6 A & C). When the intracellular solution contained the same concentration of Cl^− as that in the extracellular side, the recorded voltage (EI = 0) was normally close to 0 mV. When the intracellular solution was replaced by the one containing other anions, the value of EI = 0 changed to a new value corresponding to the Erev of the new ionic condition. It is important to point out that the measurement of Erev can be imprecise if the amplitude of the ANO1 current is not within a proper range. Therefore, in permeability ratio measurements we only used the data obtained from patches with a maximal current in the range of 100 pA–1000 pA at +40 mV. All the presented Erev values (and the recording traces for measuring Erev) are not corrected for junction potential difference between solutions because the junction potentials are relatively small. However, the reported permeability ratios were calculated based on the junction potential-corrected Erev. The correction for the junction potential results in very small changes in the calculated permeability ratios.
The permeability ratios of various anions versus Cl^− (PX/PCl, where X represents various anions) were calculated using the Erev obtained from bi-ionic experiments according to the following equation (eq. 3), PX/PCl = exp[Erev/(RT/F)], where R, T, and F are the gas constant, absolute temperature, and Faraday constant, respectively. Comparing the difference between Erev’s of the Ca^2+- and Sr^2+-activated current was performed using the pair t test at the significant level of 0.05.

TMEM16A (ANO1) [2] = target: T1, TMEM16A (ANO1); test: Activation of ANO1 current by divalent cations, excised inside-out patch with fast solution exchange; assay type: cell-based; settings: for maximal ANO1 current activated by saturating divalent cation compared with Is induced by saturating [Ca^2+]: Is induced by 20 µM Ca^2+, ±40 mV; for Hill coefficient (n) of dose-response activation curve / EC50: values covering +40 and −40 mV; for EC50: read-out: K1/2 of ANO1 activation
Source text: as §1
All chemicals were reagent grade. Regular salts (such as NaCl, NaOH, CaCl2, SrCl2, BaCl2, MgCl2 or sodium salts of various anions) were purchased from Fisher Chemicals (Fair Lawn, NJ), J. T. Baker (Phillipsburg, NJ) or Sigma Chemicals Co. (St. Louis, MO). EGTA, HEPES, and NFA were from Sigma Chemicals Co. Excised inside-out patch-clamp recordings were performed throughout the study. The extracellular (pipette) solution in all experiments contained: 140 mM NaCl, 10 mM HEPES, 0.1 mM EGTA, pH = 7.4. The regular intracellular solution contained 10 mM HEPES and 140 mM sodium salt of Cl^− or other anions. Various concentrations of divalent cations were made by adding certain total concentrations of divalent cations (Cl^− salts) into the solution containing a defined concentration of EGTA. We defined the pipette solution as the “zero-Ca^2+” solution. A solution containing a saturating [Ca^2+] was made by adding 0.12 mM total [Ca^2+] into the aforementioned zero-Ca^2+ solution, resulting in a solution containing ∼20 µM free [Ca^2+]. For making non-saturating [Ca^2+] solutions, the solutions included 1 mM EGTA. To make solutions containing Sr^2+ and Ba^2+, only 0.1 mM EGTA was used. The pH of all solutions was adjusted to 7.4.
Because of weak Mg^2+-EGTA binding, we referred the total [Mg^2+] as the free [Mg^2+]. The free [Ca^2+], [Sr^2+], and [Ba^2+] were calculated using the MaxChelator program (Ver1.2) kindly provided by Chris Patton from the Stanford University. This program was developed based on the binding constants available in the National Institute of Standard and Technology (NIST) between EGTA and these three divalent cations. Table S1, Table S2, and Table S3 list respectively the calculated free [Ca^2+], [Sr^2+], and [Ba^2+] used in this study. All added divalent cations were Cl^− salts. […] For example, in a solution containing 5 mM, 10 mM or 30 mM MgCl2, only 130 mM, 120 mM or 80 mM of NaCl, respectively, were added to the solution.
The patch-clamp recording pipettes were fabricated from borosilicate glass capillaries (World Precision Instruments) using PP830 electrode puller (Narishige International). When filled with the pipette solution, the electrode resistance was ∼1.5–3 MΩ. The experiments were carried out at room temperature (20–23°C) using the Axopatch 200B amplifier controlled by the Digidata I/O converter and the pClamp9 software (Axon Instruments/Molecular Devices).
Solution exchange was achieved using the SF-77 solution exchanger (Warner Instruments). After the excised inside-out patch mode was established, the tip of the patch pipette was positioned at the exit of the solution-delivery pipes of the SF-77 solution exchanger. The switch of solution pipes was controlled by a digital signal delivered from the Digidata 1320 digitizing board. […]

CaCC of Xenopus oocytes = tested on: CaCC of Xenopus oocytes; parameters: method as in PMID 11279188; settings: cited from earlier work
[3] = Ca^2+-activated current (20 µM), 140 mM extracellular NaCl, anion as intracellular sodium salt 140 mM (HCO3: 130 mM NaHCO3 + 10 mM NaCl), without junction potential correction, averaged
[4] = current activated by 20 µM Sr^2+, current clamp (I = 0), without correcting for junction potential

SMILES	Erev (bi-ionic potential) (TMEM16A (ANO1) [1]; [3]) [mV]	permeability ratio PX/PCl (TMEM16A (ANO1) [1])	Erev (bi-ionic potential) (TMEM16A (ANO1) [1]; [4]) [mV]	zero current potential of I–V curve (TMEM16A (ANO1) [1]; 140 mM extracellular NaCl)	maximal ANO1 current activated by saturating divalent cation compared with Is induced by saturating [Ca^2+] (TMEM16A (ANO1) [2])	Hill coefficient (n) of dose-response activation curve (TMEM16A (ANO1) [2])	EC50 (TMEM16A (ANO1) [2])	other results
[I-].[Na+] [I^−]	35.9±3.3	~4.1	33.4±0.3	+39 mV	–	–	–	Erev (bi-ionic potential) (TMEM16A (ANO1) [1]; Ca^2+-activated current (20 µM), 140 mM extracellular NaCl, anion as intracellular sodium salt 140 mM (HCO3: 130 mM NaHCO3 + 10 mM NaCl), without junction potential correction, averaged, listed as I^–): ~+35 mV
N[C@@H](CCC(=O)O)C(=O)[O-].[Na+] [glutamate, Na-glutamate]	< −80	–	–	–	–	–	–	–
O=[N+]([O-])[O-].[Na+] [NO3 ^−]	32.9±1.1	~3.5	31.3±0.5	+33 mV	–	–	–	–
[Cl-].[Cl-].[Sr+2] [Sr^2+]	–	–	–	–	can activate the same maximal current; also recorded: activated the channel to the same maximal current level	2–2.6 and ~2	5 to 10 µM and ~5 µM	difference of Erev between channels activated by Sr^2+ and Ca^2+ (TMEM16A (ANO1) [1]): 1–2 mV
O=C(O)c1ccccc1Nc1ccccc1 [DPC]	–	–	–	–	–	–	–	sideness of the block (CaCC of Xenopus oocytes): from the extracellular side; voltage dependence of inhibition (CaCC of Xenopus oocytes): voltage dependent
[Ba+2].[Cl-].[Cl-] [Ba^2+]	–	–	–	–	can activate the same maximal current; also recorded: activated the channel to the same maximal current level	1.1–1.4 and 1–1.5	130 to 230 µM and 100 to 200 µM	fraction of maximal current activated (TMEM16A (ANO1) [2]; 404 µM [Ba^2+]): 70–80%

From article PMC3906059, “Activation and Inhibition of TMEM16A Calcium-Activated Chloride Channels” (PLoS ONE, 2014)
